Results on three compounds are retold here after paper PMC4629473 (European journal of medicinal chemistry, 2015).

Like-named read-outs stand apart in the source and are kept apart here. Where only a bound is given, the exact number is not on record here.

The test system of data set [1] is HIV-1. Description: Antiviral activity against HIV-1 in activated primary human PBM cells. The format is cell-based. The note with it: read-out: EC50 (μM), concentration required to induce 50% of inhibition.
Data set [2] concerns Vero cells. Kind of data set: Cytotoxicity in Vero cells. The data set is classed as cell-based.
In data set [3] the test system is CEM cells. Description: Cytotoxicity in CEM cells. The format is cell-based.
Data set [4] concerns PBM cells. Kind of data set: Cytotoxicity in normal PBM cells. The data set is classed as cell-based, human.
Data set [5] has as its target HIV-1 IN recombinant protein (Human immunodeficiency virus type 1 group M subtype B, UniProt P12497). Kind of data set: HIV-1 integrase 3′-processing gel-based assay. The format is biochemical.

A word on the CC50: it is the concentration at which the toxic effect on the cells reaches its halfway point. With “Ethyl (Z)-6-ethyl-1-(4-(3-(3-hydroxy-4-isopropoxy-4-oxobut-2-enoyl)benzyl)benzyl)-2-oxo-4-phenyl-1,2-dihydropyrimidine-5-carboxylate [19′]”, the EC50 in data set [1] came out at 36.8 µM. Further, the CC50 in data set [2] (read-out: CC50 (μM) VERO, VERO cells, concentration reducing cell growth by 50%) was more than 100 µM; in data set [3] (read-out: CC50 (μM) CEM, CEM cells, concentration reducing cell growth by 50%) it was 8.9 µM; in data set [4] (read-out: CC50 (μM) PBM, PBM cells, concentration reducing cell growth by 50%), 47.6 µM.
A word on the IC50: it is the midpoint of a concentration-inhibition curve. For the compound `CCOC(=O)c1c(-c2ccccc2)nc(=O)n(Cc2ccc(C(=O)/C=C(\O)C(=O)O)cc2)c1C` [4a, 4-[4-[(5-ethoxycarbonyl-6-methyl-2-oxo-4-phenyl-pyrimidin-1-yl)methyl]phenyl]-2-hydroxy-4-oxo-but-2-enoic acid], the IC50 in data set [5] was more than 111 µM.
“Ethyl (Z)-1-(4-(3-hydroxy-4-isopropoxy-4-oxobut-2-enoyl)benzyl)-4-(4-methoxyphenyl)-2-oxo-6-phenyl-1,2-dihydropyrimidine-5-carboxylate [4′l]”: the EC50 in data set [1] is 80.6 µM. For the same compound, the 50% cytotoxic concentration (CC50) in data set [2] is more than 100 µM; in data set [3], 25.3 µM; in data set [4] it was more than 100 µM.
